# Assays:
# ALK1 kinase = ALK1 kinase (Homo sapiens (Human), UniProt P37023); test: In vitro enzyme inhibition using scintillation of incorporated radio label (flashplate assay); assay type: biochemical; settings: biotinylated α-casein, 33P-ATP, 500 nM ATP
# Experimental: B-1a. In Vitro Enzyme Inhibition Using Scintillation of Incorporated Radio Label (Flashplate Assay)
# Test compounds diluted in DMSO are mixed with a suitable substrate/co-substrate (here: biotinylated α-casein and ^33P-ATP) in a corresponding assay buffer. Addition of the enzyme of interest (here: ALK1 kinase) starts the enzyme reaction. The enzyme-catalyzed incorporation of radio label into the substrate is measured via scintillation. Incorporated radio label is separated from free radio label via specific binding of the biotinylated substrate to strepavidin-coated microtiter plates (flashplates) and concomitant washing steps. The scintillation signal intensity (counts per minutes, cpm) is proportional to the enzyme activity. Enzyme inhibition results in a decreased signal intensity. IC50 values of the test compounds are determined by cpm-versus-[I] plots.
# Reaction buffer contains 50 mM Tris pH 8.0 (Sigma), 1 mM MnCl2 (Sigma), 0.01% Nonidet P40 (Fluka), 0.5× Complete EDTA-free protease inhibitors (Roche; contains a mixture of several protease inhibitors for the inhibition of serine and cysteine (but not metallo-) proteases; 1 tablet contains protease inhibitors sufficient for a 50 ml cell extract; the concentration used in this assay corresponds to 1 tablet in 100 ml).
# • 1.) Stop solution: Dulbecco's PBS (PAA, Pasching, Austria), 25 mM EDTA (Sigma), 25 μM ATP (Roche), 0.05% Triton X-100 (Sigma); • 2.) Saturation buffer: Dulbecco's PBS (PAA, Pasching, Austria), 100 μM ATP (Roche), 0.2% Triton X-100 (Sigma); • 3.) Wash buffer: Dulbecco's PBS (PAA, Pasching, Austria). Enzyme Solution:
# ALK1 (Invitrogen, Paisley, United Kingdom) stock solution (35.7 ng/μl) is diluted to 4 ng/μl; final concentration in the reaction is 1 ng/μl.
# Dephosphorylated α-casein (Sigma) is biotinylated according to the manufacturer's protocol (Pierce, Bonn, Germany) resulting in a stock solution of 61.6 μM. Briefly, EZ-Link® Biotin reagent (sulfosuccinimidyl-6-(biotinamido)hexanoate; Pierce, Bonn, Germany) is added in equal molarity to α-casein and incubated on ice for 2 h. Afterwards, the biotin reagent is removed by dialysis (2×2 h and overnight).
# A 100 mM solution of cold (unlabelled) ATP (Roche) is diluted 1:100 before each test. For the substrate mix, α-casein is diluted to 2.22 μM resulting in a final concentration of 1 μM α-casein in the reaction. Additionally, cold ATP is added to give a 1.11 μM solution which results in a final concentration of 500 nM in the reaction.
# Radioactive ATP Solution:
# The stock solution (9.25 MBq/25 μl of ^33P-ATP; Perkin Elmer, Rodgau, Germany) is diluted to 651.2 Bq/μl.
# Compounds are dissolved in 100% DMSO (10 mM stock solution) and diluted to 2 mM. Further dilutions are made stepwise 1:3.16 in DMSO.
# A volume of 9 μl substrate solution is provided into each well of a 384 well microliter plate (Greiner Bio-One, Solingen, Germany), 1 μl compound solution and 5 μl of the radioactive ATP solution are added. Enzyme reaction starts with addition of 5 μl of enzyme solution. The mixture is incubated for 60 minutes at room temperature and then stopped by addition of 10 μl stop solution. The 384 well microliter flashplates (Perkin Elmer, Rodgau, Germany) are saturated with 50 μl saturation buffer per well for at least 60 minutes. Subsequently, a volume of 20 μl is discarded and replaced with 20 μl of the stopped ALK1 reaction mixture. Binding of biotinylated substrate to the flashplate is allowed for by overnight incubation at room temperature. Bound substrate is separated from unbound components through repeated washing steps (3×50 μl washing buffer per well). Finally, 50 μl washing buffer is added, and the scintillation signal (cpm) is measured in a suitable counter (Perkin Elmer, Rodgau, Germany).
# [1] = system: hSmad7 mRNA in BMP9-stimulated HUVEC; test: Smad7 target gene induction: HUVEC cell assay and TaqMan expression analysis; assay type: cell-based, human; settings: 1 ng/ml BMP9 for 3 h, Smad7 mRNA by TaqMan
# Experimental: B-2b. Smad7 Target Gene Induction: HUVEC Cell Assay and TaqMan Expression Analysis
# The in vitro potency of ALK1 inhibitors was tested in a cell-based assay. Bone morphogenetic protein 9 (BMP9) induces Smad7 mRNA expression in human vascular endothelial cells (HUVEC) via activation of ALK1.
# 1.5×10^4 passage 2 HUVECs (Lonza, Basel, Switzerland) per well were seeded in a 96-well plate in EBM-2 medium containing EGM-2 additives and growth factors (Lonza, CC-3156 and CC-4176). After 4 h, the medium was changed to EBM-2 with 0.2% fetal calf serum (FCS) and the cells were starved for 20 h in a humidified incubator at 37° C., 5% CO2. Test compounds were added at 11 different concentrations between 0 and 10 000 nM one hour prior to stimulation of the cells for 3 h with recombinant human BMP9 protein at 1 ng/ml (dissolved in 4 mM hydrochloric acid, 0.1% BSA at 10 μg/ml; R&D Systems, Minneapolis, Minn., USA, 3209BP). Medium was removed, and the cells were lysed in 100 μl RLT buffer (Qiagen, Hilden, Germany). RNA was isolated using the Qiagen RNeasy 96 Kit (order-No. 74182) according to manufacturer's instructions and eluted from the columns with 65 μl RNAse-free water. Reverse transcription for quantitative RT-PCR was carried out with the Omniscript Kit (Qiagen, 205113) in RNAse-free 96-well round-bottom plates. Per well, 6.8 μl of a reaction master mix containing 2 μl 10×RT-buffer, 2 μl dNTPs (5 mM each), 1.6 μl random primer N6 (125 μM), 0.25 μl Rnase Out (40 U/μl) and 1 μl Omniscript Reverse Transcriptase were added. After addition of 13.2 μl of the RNA/water mixture, plate contents were mixed, incubated for 1 h at 37° C. and the total volume adjusted to 100 μl in each well by addition of 80 μl RNAse-free water.
# The quantification of human Smad7 mRNA was carried out on a TaqMan using the Eurogentec qPCR Mastermix Plus (RT-QP2X-03-075+; Cologne, Germany) and employing human L32 as housekeeping reference mRNA. Per qPCR reaction, 2.8 μl primer mix, 10 μl master mix, 2.2 μl water and 5 μl cDNA were added. Thermal cycling parameters were 2 min at 50° C., followed by 10 min at 95° C., followed by 40 cycles of melting at 95° C. for 15 sec and annealing/extending at 60° C. for 1 min.
# Smad7 mRNA levels induced by 1 ng/ml BMP9 without the addition of any inhibitor were set at 100% induction, and % inhibition was calculated for each test compound with this value. For each test compound, every value was determined in quadruplicate. The IC50 values were determined using Microsoft Excel. The fitting method used was a weighted, unconstrained ML-fit.
# [2] = system: hSmad7 mRNA in BMP9-stimulated HMVEC; test: Smad7 target gene induction: HMVEC cell assay and TaqMan expression analysis; assay type: cell-based; settings: Homo sapiens, hBMP9 stimulation, Smad7 mRNA by TaqMan
# Experimental: B-2a. Smad7 Target Gene Induction: HMVEC Cell Assay and TaqMan Expression Analysis
# Activation of ALK1 receptors by BMP9 induces the Smad1/5 signalling pathway and enhances expression of target genes Smad6, Smad7 and Id-1. Induction of Smad7-mRNA in BMP9-stimulated endothelial cells was determined to monitor the cellular potency of ALK1 kinase inhibitors.
# Human microvascular endothelial cells (IIMVECadult, Cell Systems, St. Katharinen) were seeded in complete ENGS MV medium with all supplements (LifeLine Cell Technology) in 96 well plates with 10 000 cells per well. After 4 h incubation at 37° C. and 7.5% CO2 in a humidified incubator, medium was replaced with minimal medium (ENGS MV without supplements containing 0.02% FCS). After 16 h, test compounds or medium (controls) were added to the cultures, followed 30 min later by addition of hBMP9 (R&D Systems). Medium was removed 1 to 4 h later, plates were gently washed with phosphate-buffered saline, and cells were lysed with 150 μl per well of ice-cold RLT buffer (Qiagen).
# Total cellular RNA was isolated with the Trizol® reagent protocol according to the manufacturer's specifications (Invitrogen, USA) and treated with DNAseI to remove genomic DNA contamination.
# For relative quantitation of the mRNA distribution of hSmad7, total RNA from each sample was first reverse-transcribed using the ImProm-II Reverse Transcription System (Promega, USA) according to the manufacturer's protocol. The final volume was adjusted to 200 μl with water.
# For relative quantitation of selected mRNA, the Applied Bioscience ABI 7900HT Sequence Detection System was used according to the manufacturer's specifications and protocols. PCR reactions were set up to quantitate hSmad7- and the housekeeping gene L32-mRNA. Forward and reverse primers and probes for hSmad7 and L32 were designed using the Applied Bioscience ABI Primer Expressim software and were synthesized by Eurogentec (Belgium). The hSmad7 forward primer sequence was: Primer 1 (SEQ ID NO 1). The hSmad7 reverse primer sequence was: Primer 2 (SEQ ID NO 2). Probe 1 (SEQ ID NO 3), labelled with FAM as the reporter dye and TAMRA as the quencher, was used as a probe for hSmad7. The L32 forward primer sequence was: Primer 3 (SEQ ID NO 4). The L32 reverse primer sequence was: Primer 4 (SEQ ID NO 5). Probe 2 (SEQ ID NO 6), labelled with FAM as the reporter dye and TAMRA as the quencher, was used as a probe for L32.
# The following reagents were prepared in a total of 20 μl added per well: 1× qPCR-MasterMix (Eurogentec, Belgium) and hSmad7 forward and reverse primers each at 200 nM, 200 nM hSmad7 FAM/TAMRA-labelled probe 1 (SEQ ID NO 3), and 5 μl of template cDNA. Correspondingly, a second mix in a total of 20 μl was prepared using L32 FAM/TAMRA-labelled probe 2 (SEQ ID NO 6) and L32 forward and reverse primers added per well in parallel samples.
# Thermal cycling parameters were 2 min at 50° C., followed by 10 min at 95° C., followed by 40 cycles of melting at 95° C. for 15 sec and annealing/extending at 60° C. for 1 min.
# Calculation of Relative Expression:
# The Ct (cycle threshold) values were calculated from the turning point of PCR product quantity curves by the ΔΔCt method (delta-delta Ct): ΔCt=CthSmad7−CtL32; relative expression=2^(15-ΔCt).
# IC50 values of test compounds were calculated on basis of relative Smad7 expressions at different compound concentrations.
# Chain of ALK1 kinase (P37023 22-503): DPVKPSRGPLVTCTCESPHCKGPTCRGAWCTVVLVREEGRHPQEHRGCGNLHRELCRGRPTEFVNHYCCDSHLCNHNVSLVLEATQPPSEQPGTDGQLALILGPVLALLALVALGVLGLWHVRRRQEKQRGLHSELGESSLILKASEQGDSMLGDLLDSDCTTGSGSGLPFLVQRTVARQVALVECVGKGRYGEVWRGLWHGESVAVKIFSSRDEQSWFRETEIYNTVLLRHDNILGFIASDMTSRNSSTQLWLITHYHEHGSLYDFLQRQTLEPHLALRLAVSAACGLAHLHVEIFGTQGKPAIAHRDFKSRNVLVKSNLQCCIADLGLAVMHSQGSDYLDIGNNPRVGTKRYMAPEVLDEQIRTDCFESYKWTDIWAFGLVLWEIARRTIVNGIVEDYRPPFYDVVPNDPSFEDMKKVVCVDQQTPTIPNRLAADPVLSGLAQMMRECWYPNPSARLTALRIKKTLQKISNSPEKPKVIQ
Structure (SMILES),IC50 (ALK1 kinase) [nM],"IC50 ([1]; Homo sapiens, 3 h) [nM]",IC50 [2] [nM],IC50 [1] [nM]
"CC(C)c1cc(-c2cc(F)c(CO)c(F)c2)c2c(N)ncnn12 [Example 43, [4-(4-Amino-7-isopropylpyrrolo[2,1-f][1,2,4]triazin-5-yl)-2,6-difluorophenyl]methanol]",1.9,27,–,–
"Nc1ncnn2c(C3CCNC3)cc(-c3cc(F)c(CO)c(F)c3)c12 (racemic) [Example 8, rac-{4-[4-Amino-7-(pyrrolidin-3-yl)pyrrolo[2,1-f][1,2,4]triazin-5-yl]-2,6-difluorophenyl}methanol]",–,–,60,–
"COc1cc(-c2cc(C(O)C3CC3)n3ncnc(N)c23)ccc1CO (racemic) [Example 40, rac-{4-Amino-5-[4-(hydroxymethyl)-3-methoxyphenyl]pyrrolo[2,1-f][1,2,4]triazin-7-yl}(cyclopropyl)methanol]",3.2,62,–,–
"COc1cc(-c2cc(C(O)C3CC3)n3ncnc(N)c23)ccc1CO (single isomer, unassigned; ent-4) [Example 42, ent-4-Amino-5-[4-(hydroxymethyl)-3-methoxyphenyl]pyrrolo[2,1-f][1,2,4]triazin-7-yl}(cyclopropyl)methanol (enantiomer 2)]",1.2,–,–,6.6
"COc1cc(-c2cc(C3CCCNC3)n3ncnc(N)c23)cc(F)c1CO (centres unmarked) [Example 30, {4-[4-Amino-7-(piperidin-3-yl)pyrrolo[2,1-f][1,2,4]triazin-5-yl]-2-fluoro-6-methoxyphenyl}-methanol]",2,51,–,–
"COc1cc(-c2cc(C(O)C3CC3)n3ncnc(N)c23)ccc1CO (single isomer, unassigned; ent-4) [Example 41, ent-4-Amino-5-[4-(hydroxymethyl)-3-methoxyphenyl]pyrrolo[2,1-f][1,2,4]triazin-7-yl}(cyclopropyl)methanol (enantiomer 1)]",3.5,–,–,77

# From patent US9040691B2, “Hydroxymethylaryl-substituted pyrrolotriazines as ALK1 inhibitors” (BAYER INTELLECTUAL PROPERTY GMBH, priority 2011, dated 2015)
